pIC50: −log10 of the molar value. One block for each molecule: values may come before it.
Legend:
K562 [1] = assay: Antiproliferative activity against human K562 cells measured after 72 hrs by CCK-8 assay; assay type: functional, cell-based; details: K562, 72 h
U-266 = assay: Antiproliferative activity against human U-266 cells measured after 72 hrs by CCK-8 assay; assay type: functional, cell-based; details: U-266, 72 h, pooled result: one value given for 9 cell lines, strains, targets or settings
Calu-6 = assay: Cytotoxicity against human Calu-6 cells assessed as inhibition of cell growth measured after 72 hrs by CellTiter-Glo luminescent viability assay; assay type: functional, cell-based; details: Calu-6, 72 h
Ramos = assay: Cytotoxicity against human Ramos cells assessed as inhibition of cell growth measured after 72 hrs by CellTiter-Glo luminescent viability assay; assay type: functional, cell-based
LoVo = assay: Cytotoxicity against human LoVo cells assessed as inhibition of cell growth measured after 72 hrs by CellTiter-Glo luminescent viability assay; assay type: functional, cell-based
COLO 205 = assay: Cytotoxicity against human COLO 205 cells assessed as inhibition of cell growth measured after 72 hrs by CellTiter-Glo luminescent viability assay; assay type: functional, cell-based; details: COLO 205, 72 h
Histone deacetylase 2 = Histone deacetylase 2 (Homo sapiens, UniProt Q92769); assay: Inhibition of HDAC2 (unknown origin)
SW480 = assay: Cytotoxicity against human SW480 cells assessed as inhibition of cell growth measured after 72 hrs by CellTiter-Glo luminescent viability assay; assay type: functional, cell-based; details: SW480, 72 h
THP-1 = assay: Cytotoxicity against human THP-1 cells assessed as inhibition of cell growth measured after 72 hrs by CellTiter-Glo luminescent viability assay; assay type: functional, cell-based; details: THP-1, 72 h
Histone deacetylase 3 = Histone deacetylase 3 (Homo sapiens, UniProt O15379); assay: Inhibition of HDAC3 (unknown origin)
[2] = Half life in tumor of female SCID mouse xenografted with human Daudi cells at 25 to 100 mg/kg, iv measured upto 24 hrs by LC-MS/MS analysis; assay type: ADME, organism-based, Neoplasm; details: dose 25-100 mg/kg
K562 [3] = assay: Cytotoxicity against human K562 cells assessed as inhibition of cell growth measured after 72 hrs by CellTiter-Glo luminescent viability assay; assay type: functional, cell-based; details: K562, 72 h
SW-620 = assay: Cytotoxicity against human SW620 cells assessed as inhibition of cell growth measured after 72 hrs by CellTiter-Glo luminescent viability assay; assay type: functional, cell-based; details: SW-620, 72 h
Histone deacetylase 11 = Histone deacetylase 11 (Homo sapiens, UniProt Q96DB2); assay: Inhibition of HDAC11 (unknown origin)
Daudi = assay: Cytotoxicity against human Daudi cells assessed as inhibition of cell growth measured after 72 hrs by CellTiter-Glo luminescent viability assay; assay type: functional, cell-based
[4] = AUC in tumor of female SCID mouse xenografted with human Daudi cells at 25 to 100 mg/kg, iv measured upto 24 hrs by LC-MS/MS analysis; assay type: ADME, organism-based, Neoplasm; details: in vivo, dose 25-100 mg/kg
NCI-H2122 = assay: Cytotoxicity against human NCI-H2122 cells assessed as inhibition of cell growth measured after 72 hrs by CellTiter-Glo luminescent viability assay; assay type: functional, cell-based; details: NCI-H2122, 72 h
NCI-H358 = assay: Cytotoxicity against human NCI-H358 cells assessed as inhibition of cell growth measured after 72 hrs by CellTiter-Glo luminescent viability assay; assay type: functional, cell-based; details: NCI-H358, 72 h
[5] = Inhibition of PI3K (unknown origin); set-up: species or system Homo sapiens
[6] = Cmax in tumor of female SCID mouse xenografted with human Daudi cells at 25 to 100 mg/kg, iv measured upto 24 hrs by LC-MS/MS analysis; assay type: ADME, organism-based, Neoplasm; details: dose 25-100 mg/kg
TMD8 = assay: Cytotoxicity against human TMD8 cells assessed as inhibition of cell growth measured after 72 hrs by CellTiter-Glo luminescent viability assay; assay type: functional, cell-based; details: TMD8, 72 h
NCI-H460 = assay: Cytotoxicity against human NCI-H460 cells assessed as inhibition of cell growth measured after 72 hrs by CellTiter-Glo luminescent viability assay; assay type: functional, cell-based; details: NCI-H460, 72 h
MC-38 = assay: Cytotoxicity against mouse MC38 cells assessed as inhibition of cell growth measured after 72 hrs by CellTiter-Glo luminescent viability assay; assay type: functional, cell-based; details: MC-38, 72 h
[7] = target: Polyamine deacetylase HDAC10 (Homo sapiens, UniProt Q969S8); assay: Inhibition of HDAC10 (unknown origin)
U-937 = assay: Cytotoxicity against human U-937 cells assessed as inhibition of cell growth measured after 72 hrs by CellTiter-Glo luminescent viability assay; assay type: functional, cell-based; details: U-937, 72 h
HCT-116 = assay: Cytotoxicity against human HCT-116 cells assessed as inhibition of cell growth measured after 72 hrs by CellTiter-Glo luminescent viability assay; assay type: functional, cell-based; details: HCT-116, 72 h
PC-9 = assay: Cytotoxicity against human PC-9 cells assessed as inhibition of cell growth measured after 72 hrs by CellTiter-Glo luminescent viability assay; assay type: functional, cell-based; details: PC-9, 72 h
Histone deacetylase 1 = Histone deacetylase 1 (Homo sapiens, UniProt Q13547); assay: Inhibition of HDAC1 (unknown origin)
NCI-H1975 = assay: Cytotoxicity against human NCI-H1975 cells assessed as inhibition of cell growth measured after 72 hrs by CellTiter-Glo luminescent viability assay; assay type: functional, cell-based; details: NCI-H1975, 72 h

Histone deacetylase 11, sequence (Q96DB2 whole entry): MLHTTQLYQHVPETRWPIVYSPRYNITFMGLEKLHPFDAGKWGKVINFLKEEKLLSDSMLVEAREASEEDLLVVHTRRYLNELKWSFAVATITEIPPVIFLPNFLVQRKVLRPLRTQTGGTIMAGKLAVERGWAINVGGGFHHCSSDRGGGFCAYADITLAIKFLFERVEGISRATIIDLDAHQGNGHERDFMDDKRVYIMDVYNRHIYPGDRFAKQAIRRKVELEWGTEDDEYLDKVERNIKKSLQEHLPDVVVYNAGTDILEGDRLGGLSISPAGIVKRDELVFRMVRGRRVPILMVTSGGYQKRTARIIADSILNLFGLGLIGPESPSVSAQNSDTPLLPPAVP
Polyamine deacetylase HDAC10, sequence (Q969S8 whole entry): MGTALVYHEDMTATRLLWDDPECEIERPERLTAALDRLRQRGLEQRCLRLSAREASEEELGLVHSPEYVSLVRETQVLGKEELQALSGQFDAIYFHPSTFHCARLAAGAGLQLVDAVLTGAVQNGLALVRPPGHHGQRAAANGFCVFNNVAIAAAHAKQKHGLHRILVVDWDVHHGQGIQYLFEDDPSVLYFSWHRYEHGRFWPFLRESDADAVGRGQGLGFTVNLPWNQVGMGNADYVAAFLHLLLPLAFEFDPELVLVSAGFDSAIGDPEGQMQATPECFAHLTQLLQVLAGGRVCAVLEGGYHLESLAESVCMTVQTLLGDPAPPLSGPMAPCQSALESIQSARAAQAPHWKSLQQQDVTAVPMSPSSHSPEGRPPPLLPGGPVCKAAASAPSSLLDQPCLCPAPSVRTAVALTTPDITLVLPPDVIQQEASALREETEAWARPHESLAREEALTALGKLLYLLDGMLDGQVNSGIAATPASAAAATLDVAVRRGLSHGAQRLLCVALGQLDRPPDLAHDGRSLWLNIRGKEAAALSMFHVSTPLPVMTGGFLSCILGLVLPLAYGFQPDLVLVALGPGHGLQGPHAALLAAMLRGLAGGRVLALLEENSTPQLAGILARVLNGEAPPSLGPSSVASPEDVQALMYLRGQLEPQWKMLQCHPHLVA
Histone deacetylase 3, sequence (O15379 whole entry): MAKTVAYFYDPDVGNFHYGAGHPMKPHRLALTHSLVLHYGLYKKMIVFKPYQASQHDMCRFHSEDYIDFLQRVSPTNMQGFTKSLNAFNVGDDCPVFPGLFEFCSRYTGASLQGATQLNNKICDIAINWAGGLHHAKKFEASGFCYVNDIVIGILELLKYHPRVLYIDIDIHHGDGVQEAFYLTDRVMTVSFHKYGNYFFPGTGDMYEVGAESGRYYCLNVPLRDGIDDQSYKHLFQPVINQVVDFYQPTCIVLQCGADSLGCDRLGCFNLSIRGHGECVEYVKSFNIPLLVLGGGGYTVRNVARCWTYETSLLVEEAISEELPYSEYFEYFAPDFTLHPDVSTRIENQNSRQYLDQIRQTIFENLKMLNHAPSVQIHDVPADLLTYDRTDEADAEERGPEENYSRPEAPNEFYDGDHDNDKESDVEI
Histone deacetylase 2, sequence (Q92769 whole entry): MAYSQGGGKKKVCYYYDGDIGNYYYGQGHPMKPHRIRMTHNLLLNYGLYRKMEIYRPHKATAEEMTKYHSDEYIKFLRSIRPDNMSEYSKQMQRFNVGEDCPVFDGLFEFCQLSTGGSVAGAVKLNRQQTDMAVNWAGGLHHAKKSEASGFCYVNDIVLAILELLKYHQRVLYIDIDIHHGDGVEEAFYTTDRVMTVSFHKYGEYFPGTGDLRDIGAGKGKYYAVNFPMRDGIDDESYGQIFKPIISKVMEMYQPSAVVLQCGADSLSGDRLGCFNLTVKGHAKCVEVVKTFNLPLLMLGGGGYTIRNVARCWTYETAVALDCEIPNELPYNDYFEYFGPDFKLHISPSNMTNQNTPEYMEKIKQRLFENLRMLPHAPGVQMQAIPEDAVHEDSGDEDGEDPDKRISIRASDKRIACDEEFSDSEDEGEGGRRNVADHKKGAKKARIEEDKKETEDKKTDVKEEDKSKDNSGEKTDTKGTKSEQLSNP
Histone deacetylase 1, sequence (Q13547 whole entry): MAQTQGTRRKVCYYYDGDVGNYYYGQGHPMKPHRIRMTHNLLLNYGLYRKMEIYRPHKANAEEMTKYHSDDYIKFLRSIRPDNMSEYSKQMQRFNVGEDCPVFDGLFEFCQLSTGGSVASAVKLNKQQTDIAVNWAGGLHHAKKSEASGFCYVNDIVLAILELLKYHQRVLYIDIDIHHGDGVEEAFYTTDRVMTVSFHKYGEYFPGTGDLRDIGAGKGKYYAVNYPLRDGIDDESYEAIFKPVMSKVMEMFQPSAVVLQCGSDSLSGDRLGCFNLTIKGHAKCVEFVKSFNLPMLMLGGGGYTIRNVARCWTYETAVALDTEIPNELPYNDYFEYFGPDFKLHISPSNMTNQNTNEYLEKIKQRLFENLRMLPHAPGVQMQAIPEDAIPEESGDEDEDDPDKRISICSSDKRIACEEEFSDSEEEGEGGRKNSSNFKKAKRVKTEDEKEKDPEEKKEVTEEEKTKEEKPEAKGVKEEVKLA

pIC50 (K562 [1]): 5.97
Compound: O=C(NO)c1ccc(N2CCN(C(=O)c3cc(-c4ccc(-c5ccccc5)cc4)nc4ccccc34)CC2)cc1
pIC50 (U-266): 5.97

pIC50 (Histone deacetylase 2): 9.05
pIC50 (Histone deacetylase 3): 9.05
half-life [2]: 7.9 h
pIC50 (Histone deacetylase 11): 9.05
AUC [4]: 17157.9 ng·h/g
pIC50 [5]: 8.03
Cmax [6]: 14500 ng/g
pIC50 [7]: 9.05
pIC50 (Histone deacetylase 1): 9.05
Compound: CNc1ccc(-c2nc(N3CCOCC3)c3sc(CN(C)c4ncc(C(=O)NO)cn4)cc3n2)cn1
pIC50 (Calu-6): 9.52
pIC50 (Ramos): 9.52
pIC50 (LoVo): 9.52
pIC50 (COLO 205): 9.52
pIC50 (SW480): 9.52
pIC50 (THP-1): 9.52
pIC50 (K562 [3]): 9.52
pIC50 (SW-620): 9.52
pIC50 (Daudi): 9.52
pIC50 (NCI-H2122): 9.52
pIC50 (NCI-H358): 9.52
pIC50 (TMD8): 9.52
pIC50 (NCI-H460): 9.52
pIC50 (MC-38): 9.52
pIC50 (U-937): 9.52
pIC50 (HCT-116): 9.52
pIC50 (PC-9): 9.52
pIC50 (NCI-H1975): 9.52

From ChEMBL document CHEMBL5614367, “Hydroxamic acid hybrids: Histone deacetylase inhibitors with anticancer therapeutic potency” (Eur J Med Chem, 2023)
